Values of other authors in patent US20110015368A1, “CD4-RECEPTOR-DERIVED PEPTIDES AND METHOD FOR THE PREPARATION THEREOF” (priority 2006, published 2011).

Tested on: HIV
Settings: Esté et al. 1997

Substance | Inhibiting the infection of cells by HIV
chondroitin sulphate | not
dextran sulphate | capable of inhibiting the infection of cells by HIV
heparin | capable of inhibiting the infection of cells by HIV
